{"source": "patent US20230085307A1", "about": "“PYRIDAZINONE COMPOUND AND HERBICIDE” (NISSAN CHEMICAL CORPORATION, priority 2019, published 2023)", "data": [{"tested_on": "barnyard grass", "experiment": "Test Example 4: herbicidal effect by soil treatment (Table 19, symbol H)", "format": "in vivo, barnyard grass (Echinochloa crus-galli)", "conditions": "320 g/ha", "how_it_was_run": "(§1)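 Pre-emergence style soil spray: seeds under ~1.5 cm sterilized diluvial soil received a uniform coat of emulsion diluted to the predetermined herbicide amount. Greenhouse 25–30° C; readout at week three on previously defined criteria.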", "values": [{"smiles": "CCCC(=O)Oc1c(C)nn(C)c(=O)c1-c1c(-c2ccc(OC(F)(F)F)cc2)sc2ccc(F)cc12", "note": "[2-046]", "herbicidal effect rating, H: barnyard grass": "3 (Herbicidal rate of 40% or more and less than 70%)"}, {"smiles": "Cc1nn(C)c(=O)c(-c2c(-c3ccc(OCCF)cc3)sc3ccc(F)cc23)c1O", "note": "[2-047]", "herbicidal effect rating, H: barnyard grass": "5 (Herbicidal rate of 90% or more (almost completely withered))"}]}, {"tested_on": "green foxtail", "experiment": "Test Example 4: herbicidal effect by soil treatment (Table 19, symbol G)", "format": "in vivo, green foxtail (Setaria viridis)", "conditions": "320 g/ha", "how_it_was_run": "as §1", "values": [{"smiles": "CCCC(=O)Oc1c(C)nn(C)c(=O)c1-c1c(-c2ccc(OC(F)(F)F)cc2)sc2ccc(F)cc12", "note": "[2-046]", "herbicidal effect rating, G: green foxtail": "4 (Herbicidal rate of 70% or more and less than 90%)"}, {"smiles": "Cc1nn(C)c(=O)c(-c2c(-c3ccc(OCCF)cc3)sc3ccc(F)cc23)c1O", "note": "[2-047]", "herbicidal effect rating, G: green foxtail": "5 (Herbicidal rate of 90% or more (almost completely withered))"}]}, {"tested_on": "redroot pigweed", "experiment": "Test Example 4: herbicidal effect by soil treatment (Table 19, symbol N)", "format": "in vivo, redroot pigweed (Amaranthus retroflexus)", "conditions": "320 g/ha", "how_it_was_run": "as §1", "values": [{"smiles": "CCCC(=O)Oc1c(C)nn(C)c(=O)c1-c1c(-c2ccc(OC(F)(F)F)cc2)sc2ccc(F)cc12", "note": "[2-046]", "herbicidal effect rating, N: redroot pigweed": "4 (Herbicidal rate of 70% or more and less than 90%)"}, {"smiles": "Cc1nn(C)c(=O)c(-c2c(-c3ccc(OCCF)cc3)sc3ccc(F)cc23)c1O", "note": "[2-047]", "herbicidal effect rating, N: redroot pigweed": "5 (Herbicidal rate of 90% or more (almost completely withered))"}]}, {"tested_on": "late watergrass", "experiment": "Test Example 2: herbicidal activity, application during weed generation under submerged conditions (Table 17, symbol A)", "format": "in vivo, late watergrass (Echinochloa oryzicola)", "conditions": "AAH 320 g/ha; application during weed generation, submerged conditions", "how_it_was_run": "(§2)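 Steps: fill Wagner pots with alluvial soil; add water to give 4 cm depth; sow the species mixed; grow under glass at 25–30° C.; at 1–2 leaves apply water-diluted emulsion formulation to the water surface at a fixed herbicide amount; score after 3 weeks.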", "values": [{"smiles": "CCCC(=O)Oc1c(C)nn(C)c(=O)c1-c1c(-c2ccc(OC(F)(F)F)cc2)sc2ccc(F)cc12", "note": "[2-046]", "herbicidal effect rating, A: late watergrass": "1 (Herbicidal rate of 5% or more and less than 20%)"}, {"smiles": "Cc1nn(C)c(=O)c(-c2c(-c3ccc(OCCF)cc3)sc3ccc(F)cc23)c1O", "note": "[2-047]", "herbicidal effect rating, A: late watergrass": "0 (Herbicidal rate of 5% or less (almost no effect))"}]}, {"tested_on": "green foxtail", "experiment": "Test Example 5: herbicidal effect by foliage application, plastic box (Table 20, symbol G)", "format": "in vivo, green foxtail (Setaria viridis)", "conditions": "foliage application, 320 g/ha, 3 weeks after application", "how_it_was_run": "(§3)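 Plants were sown into sterilized diluvial soil under about 1.5 cm cover and kept in a greenhouse at 25° C. to 30° C. Fourteen days on, foliage received an even spray of the diluted emulsion. Herbicidal or crop effect was judged three weeks afterwards.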", "values": [{"smiles": "CCCC(=O)Oc1c(C)nn(C)c(=O)c1-c1c(-c2ccc(OC(F)(F)F)cc2)sc2ccc(F)cc12", "note": "[2-046]", "effect on green foxtail (G)": "5 (Herbicidal rate of 90% or more (almost completely withered))"}, {"smiles": "Cc1nn(C)c(=O)c(-c2c(-c3ccc(OCCF)cc3)sc3ccc(F)cc23)c1O", "note": "[2-047]", "effect on green foxtail (G)": "5 (Herbicidal rate of 90% or more (almost completely withered))"}]}, {"tested_on": "oval-leafed pondweed", "experiment": "Test Example 2: herbicidal activity, application during weed generation under submerged conditions (Table 17, symbol C)", "format": "in vivo, oval-leafed pondweed (Monochoria vaginalis)", "conditions": "AAH 320 g/ha; application during weed generation, submerged conditions", "how_it_was_run": "as §2", "values": [{"smiles": "CCCC(=O)Oc1c(C)nn(C)c(=O)c1-c1c(-c2ccc(OC(F)(F)F)cc2)sc2ccc(F)cc12", "note": "[2-046]", "herbicidal effect rating, C: oval-leafed pondweed": "0 (Herbicidal rate of 5% or less (almost no effect))"}, {"smiles": "Cc1nn(C)c(=O)c(-c2c(-c3ccc(OCCF)cc3)sc3ccc(F)cc23)c1O", "note": "[2-047]", "herbicidal effect rating, C: oval-leafed pondweed": "2 (Herbicidal rate of 20% or more and less than 40%)"}]}, {"tested_on": "velvetleaf", "experiment": "Test Example 4: herbicidal effect by soil treatment (Table 19, symbol M)", "format": "in vivo, velvetleaf (Abutilon theophrasti)", "conditions": "320 g/ha", "how_it_was_run": "as §1", "values": [{"smiles": "CCCC(=O)Oc1c(C)nn(C)c(=O)c1-c1c(-c2ccc(OC(F)(F)F)cc2)sc2ccc(F)cc12", "note": "[2-046]", "herbicidal effect rating, M: velvetleaf": "3 (Herbicidal rate of 40% or more and less than 70%)"}, {"smiles": "Cc1nn(C)c(=O)c(-c2c(-c3ccc(OCCF)cc3)sc3ccc(F)cc23)c1O", "note": "[2-047]", "herbicidal effect rating, M: velvetleaf": "5 (Herbicidal rate of 90% or more (almost completely withered))"}]}, {"tested_on": "Italian ryegrass", "experiment": "Test Example 5: herbicidal effect by foliage application, plastic box (Table 20, symbol K)", "format": "in vivo, Italian ryegrass (Lolium multiflorum)", "conditions": "foliage application, 320 g/ha, 3 weeks after application", "how_it_was_run": "as §3", "values": [{"smiles": "CCCC(=O)Oc1c(C)nn(C)c(=O)c1-c1c(-c2ccc(OC(F)(F)F)cc2)sc2ccc(F)cc12", "note": "[2-046]", "effect on Italian ryegrass (K)": "4 (Herbicidal rate of 70% or more and less than 90%)"}, {"smiles": "Cc1nn(C)c(=O)c(-c2c(-c3ccc(OCCF)cc3)sc3ccc(F)cc23)c1O", "note": "[2-047]", "effect on Italian ryegrass (K)": "4 (Herbicidal rate of 70% or more and less than 90%)"}]}, {"tested_on": "persian speedwell", "experiment": "Test Example 5: herbicidal effect by foliage application, plastic box (Table 20, symbol R)", "format": "in vivo, Persian speedwell (Veronica persica)", "conditions": "foliage application, 320 g/ha, 3 weeks after application", "how_it_was_run": "as §3", "values": [{"smiles": "CCCC(=O)Oc1c(C)nn(C)c(=O)c1-c1c(-c2ccc(OC(F)(F)F)cc2)sc2ccc(F)cc12", "note": "[2-046]", "effect on persian speedwell (R)": "5 (Herbicidal rate of 90% or more (almost completely withered))"}, {"smiles": "Cc1nn(C)c(=O)c(-c2c(-c3ccc(OCCF)cc3)sc3ccc(F)cc23)c1O", "note": "[2-047]", "effect on persian speedwell (R)": "5 (Herbicidal rate of 90% or more (almost completely withered))"}]}, {"tested_on": "southern crabgrass", "experiment": "Test Example 4: herbicidal effect by soil treatment (Table 19, symbol F)", "format": "in vivo, southern crabgrass (Digitaria ciliaris)", "conditions": "320 g/ha", "how_it_was_run": "as §1", "values": [{"smiles": "CCCC(=O)Oc1c(C)nn(C)c(=O)c1-c1c(-c2ccc(OC(F)(F)F)cc2)sc2ccc(F)cc12", "note": "[2-046]", "herbicidal effect rating, F: southern crabgrass": "2 (Herbicidal rate of 20% or more and less than 40%)"}, {"smiles": "Cc1nn(C)c(=O)c(-c2c(-c3ccc(OCCF)cc3)sc3ccc(F)cc23)c1O", "note": "[2-047]", "herbicidal effect rating, F: southern crabgrass": "5 (Herbicidal rate of 90% or more (almost completely withered))"}]}, {"tested_on": "blackgrass", "experiment": "Test Example 4: herbicidal effect by soil treatment (Table 19, symbol J)", "format": "in vivo, blackgrass (Alopecurus myosuroides)", "conditions": "320 g/ha", "how_it_was_run": "as §1", "values": [{"smiles": "CCCC(=O)Oc1c(C)nn(C)c(=O)c1-c1c(-c2ccc(OC(F)(F)F)cc2)sc2ccc(F)cc12", "note": "[2-046]", "herbicidal effect rating, J: blackgrass": "0 (Herbicidal rate of 5% or less (almost no effect))"}, {"smiles": "Cc1nn(C)c(=O)c(-c2c(-c3ccc(OCCF)cc3)sc3ccc(F)cc23)c1O", "note": "[2-047]", "herbicidal effect rating, J: blackgrass": "0 (Herbicidal rate of 5% or less (almost no effect))"}]}, {"tested_on": "wild oat", "experiment": "Test Example 4: herbicidal effect by soil treatment (Table 19, symbol I)", "format": "in vivo, wild oat (Avena fatua)", "conditions": "320 g/ha", "how_it_was_run": "as §1", "values": [{"smiles": "CCCC(=O)Oc1c(C)nn(C)c(=O)c1-c1c(-c2ccc(OC(F)(F)F)cc2)sc2ccc(F)cc12", "note": "[2-046]", "herbicidal effect rating, I: wild oat": "0 (Herbicidal rate of 5% or less (almost no effect))"}, {"smiles": "Cc1nn(C)c(=O)c(-c2c(-c3ccc(OCCF)cc3)sc3ccc(F)cc23)c1O", "note": "[2-047]", "herbicidal effect rating, I: wild oat": "2 (Herbicidal rate of 20% or more and less than 40%)"}]}, {"tested_on": "Japanese bulrush", "experiment": "Test Example 2: herbicidal activity, application during weed generation under submerged conditions (Table 17, symbol B)", "format": "in vivo, Japanese bulrush (Schoenoplectus juncoides)", "conditions": "AAH 320 g/ha; application during weed generation, submerged conditions", "how_it_was_run": "as §2", "values": [{"smiles": "CCCC(=O)Oc1c(C)nn(C)c(=O)c1-c1c(-c2ccc(OC(F)(F)F)cc2)sc2ccc(F)cc12", "note": "[2-046]", "herbicidal effect rating, B: Japanese bulrush": "3 (Herbicidal rate of 40% or more and less than 70%)"}, {"smiles": "Cc1nn(C)c(=O)c(-c2c(-c3ccc(OCCF)cc3)sc3ccc(F)cc23)c1O", "note": "[2-047]", "herbicidal effect rating, B: Japanese bulrush": "3 (Herbicidal rate of 40% or more and less than 70%)"}]}, {"tested_on": "lambsquarters", "experiment": "Test Example 5: herbicidal effect by foliage application, plastic box (Table 20, symbol O)", "format": "in vivo, lambsquarters (Chenopodium album)", "conditions": "foliage application, 320 g/ha, 3 weeks after application", "how_it_was_run": "as §3", "values": [{"smiles": "CCCC(=O)Oc1c(C)nn(C)c(=O)c1-c1c(-c2ccc(OC(F)(F)F)cc2)sc2ccc(F)cc12", "note": "[2-046]", "effect on lambsquarters (O)": "5 (Herbicidal rate of 90% or more (almost completely withered))"}, {"smiles": "Cc1nn(C)c(=O)c(-c2c(-c3ccc(OCCF)cc3)sc3ccc(F)cc23)c1O", "note": "[2-047]", "effect on lambsquarters (O)": "4 (Herbicidal rate of 70% or more and less than 90%)"}]}]}
